In patent publication US20260242405A1, “N-DERIVATIZED SIALIC ACIDS AND RELATED SIALOSIDES” (THE REGENTS OF THE UNIVERSITY OF CALIFORNIA, priority 2023, published 2026):
Where two headings read alike, the source gives them in different places.

Legend:
[1] = target: N1-BR18 (IAV neuraminidase) (Influenza A virus, UniProt A0A0X9QTS2); assay: Fluorescence-based inhibition assay (substrate Neu5Acα2-3GalβMU, β-galactosidase coupled); type: biochemical, influenza A virus A/Brisbane/02/2018 (H1N1); conditions: for IC50: read-out: IC50 against N1-BR18; for Percentage inhibition against N1-BR18 (IAV) / percentage inhibition against N1-BR18: inhibitor 8.0 μM; for Percentage inhibition against N1-BR18 (IAV): substrate Neu5Acα2-3GalβMU 8.0 μM
[2] = target: NB-Aus21 (IBV neuraminidase) (Influenza B virus, UniProt A0A1X9RX69); assay: biochemical; design: species or system influenza B virus B/Austria/1359417/2021
[3] = target: T1, hNEU2 (human cytosolic sialidase) (Homo sapiens, UniProt Q9Y3R4); assay: Fluorescence-based inhibition assay (substrate Neu5Acα2-3GalβMU, β-galactosidase coupled); type: biochemical; conditions: inhibitor 8.0 μM
T1 construct: made in house
T1 sequence (Q9Y3R4 whole entry): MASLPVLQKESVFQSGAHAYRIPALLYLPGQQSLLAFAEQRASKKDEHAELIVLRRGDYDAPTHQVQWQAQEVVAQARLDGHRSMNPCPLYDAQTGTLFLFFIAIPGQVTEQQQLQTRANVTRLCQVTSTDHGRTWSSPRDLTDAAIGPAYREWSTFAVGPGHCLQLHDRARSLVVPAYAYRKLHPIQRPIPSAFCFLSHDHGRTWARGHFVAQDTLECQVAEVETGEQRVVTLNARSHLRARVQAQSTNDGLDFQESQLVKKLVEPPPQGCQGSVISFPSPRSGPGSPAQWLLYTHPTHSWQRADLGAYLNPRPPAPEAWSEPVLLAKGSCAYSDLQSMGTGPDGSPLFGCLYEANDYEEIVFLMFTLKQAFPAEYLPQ

[4] = test system: N1-Vic19 (IAV neuraminidase); assay: as above; type: biochemical, influenza A virus A/Victoria/2570/2019 (H1N1); conditions: for percentage inhibition against N1-Vic19: inhibitor 8.0 μM, Example 3, Table 4
[5] = target: N2-Dar21 (IAV neuraminidase) (Influenza A virus, UniProt A0A193ACB1); assay: as above; type: biochemical, influenza A virus A/Darwin/9/2021 (H3N2); conditions: for inhibition at 8 µM: read-out: percentage inhibition against N2-Dar21; for percentage inhibition against N2-Dar21: inhibitor 8.0 μM, Example 3, Table 4
[6] = target: N2-Kan17 (IAV neuraminidase) (Influenza A virus, UniProt A0A193ACB1); assay: as above; type: biochemical, influenza A virus A/Kansas/14/2017 (H3N2); conditions: for inhibition at 8 µM: read-out: percentage inhibition against N2-Kan17; for percentage inhibition against N2-Kan17: inhibitor 8.0 μM, Example 3, Table 4
[7] = target: NB-Phu13 (IBV neuraminidase) (Influenza B virus, UniProt A0A1S5RAG6); assay: as above; type: biochemical, influenza B virus B/Phuket/3073/2013; conditions: for inhibition at 8 µM: read-out: percentage inhibition against NB-Phu13; for percentage inhibition against NB-Phu13: inhibitor 8.0 μM, Example 3, Table 4
[8] = target: T2, PmST1 WT (sialidase activity of α2-3-sialyltransferase 1 in the presence of CMP) (Pasteurella multocida, UniProt Q15KI8); assay: biochemical; conditions: for inhibition at 8 µM: read-out: percent inhibition against PmST1 WT; for percent inhibition against PmST1 WT: inhibitor 8.0 μM, in the presence of CMP, Table 5
T2 construct: made in house

SpNanA (sialidase) = target: T3, SpNanA (sialidase) (Streptococcus pneumoniae, UniProt P62575); assay: Fluorescence-based inhibition assay (substrate Neu5Acα2-3GalβMU, β-galactosidase coupled); type: biochemical; conditions: for inhibition at 8 µM: read-out: percent inhibition against SpNanA; for percent inhibition against SpNanA: inhibitor 8.0 μM, Table 5
T3 construct: made in house

[9] = read-out: Percentage inhibition against N1-BR18 (IAV), inhibitor 8.0 μM, substrate Neu5Acα2-3GalβMU 8.0 μM, Example 2, Table 2
[10] = read-out: percentage inhibition against N1-BR18, inhibitor 8.0 μM, Example 3, Table 4
[11] = inhibitor 8.0 μM, substrate Neu5Acα2-3GalβMU 8.0 μM, Example 2, Table 2, read-out: Percentage inhibition against NB-Aus21 (IBV)
[12] = inhibitor 8.0 μM, Example 3, Table 4, read-out: percentage inhibition against NB-NB-Aus21
[13] = substrate Neu5Acα2-3GalβMU 8.0 μM, Example 2, Table 2, read-out: Percentage inhibition against hNEU2
[14] = Table 5, read-out: percent inhibition against hNEU2
[15] = inhibitor 8.0 μM, substrate Neu5Acα2-3GalβMU 8.0 μM, Example 2, Table 2
[16] = substrate Neu5Acα2-3GalβMU 8.0 μM, Example 2, Table 2

Compound | inhibition at 8 µM [1, 9] [%] | inhibition at 8 µM [1, 10] [%] | inhibition at 8 µM [2, 11] [%] | inhibition at 8 µM [2, 12] [%] | inhibition at 8 µM [3, 13] [%] | inhibition at 8 µM [3, 14] [%] | percentage inhibition against N1-Vic19 [4] [%] | inhibition at 8 µM [5] [%] | inhibition at 8 µM [6] [%] | inhibition at 8 µM [7] [%] | inhibition at 8 µM [8] [%] | inhibition at 8 µM (SpNanA (sialidase)) [%] | further results
CC(=O)NC1C[C@](OCC2O[C@@H](Oc3ccc([N+](=O)[O-])cc3)C(O)C(O)[C@H]2O)(C(=O)O)OC([C@H](O)[C@H](O)CO)[C@@H]1NC(C)=O (stereo partly drawn) [4NAcNeu5Acα2-6GalβpNP] | 0 | 0 | 21.5 ± 1.7 | 0.4 | 0 | 0 | 0.4 | 0.4 | 1 | 1.5 | 18.6 ± 4 | 4.2 ± 0.8 | –
CC(=O)N[C@H]1[C@H]([C@H](O)[C@H](O)CO)OC(C(=O)O)=C[C@@H]1N [4NH2Neu5Ac2en, 4-amino-2,3-dehydro-N-acetylneuraminic acid, reference compound] | – | – | – | – | – | – | 95.9 | – | – | – | – | – | IC50 ([1]; fluorescence-based inhibition assay, Example 2, Table 3, listed as 4NH2Neu5 Ac2en): 490 nM; IC50 ([1]; fluorescence-based inhibition assay, Example 2, Table 3): 490 nM; Percentage inhibition against N1-BR18 (IAV) ([1]; Example 2, Table 2): 93.6 ± 0.2%; percentage inhibition against N1-BR18 ([1]; Example 3, Table 4): 94.9%; Percentage inhibition against NB-Aus21 (IBV) [2, 15]: 98.3 ± 0.1%; percentage inhibition against NB-NB-Aus21 ([2]; inhibitor 8.0 μM, Example 3, Table 4): 97.4%; Percentage inhibition against hNEU2 [3, 16]: 0.0 ± 6.6%; percent inhibition against hNEU2 ([3]; Table 5): 0.0 ± 6.6%; percentage inhibition against N2-Dar21 [5]: 94.6%; percentage inhibition against N2-Kan17 [6]: 91.3%; percentage inhibition against NB-Phu13 [7]: 91.2%; percent inhibition against PmST1 WT [8]: 9.8 ± 1.2%; percent inhibition against SpNanA (SpNanA (sialidase)): 7.9 ± 2.6%
CC(=O)N[C@H]1[C@H]([C@H](O)[C@H](O)CO)OC(O)(C(=O)O)C[C@@H]1N (stereo partly drawn) [4NH2Neu5Ac (8), 4-amino-4-deoxy-N-acetylneuraminic acid] | 28.6 ± 24.5 | – | 41.8 ± 2.8 | – | 2.2 ± 1.2 | – | – | – | – | – | – | – | –
CC(=O)N[C@H]1[C@H]([C@H](O)[C@H](O)CO)OC(C(=O)O)=C[C@@H]1N=[N+]=[N-] [Compound 4N3Neu5Ac2en, 4N3Neu5Ac2en] | – | – | – | – | – | – | 39.6 | – | – | – | – | – | IC50 ([1]; Example 3, Table 6): 4400 ± 200 nM; Percentage inhibition against N1-BR18 (IAV) ([1]; Example 2, Table 2): 40.7 ± 2.7%; percentage inhibition against N1-BR18 ([1]; Example 3, Table 4): 39.2%; percentage inhibition against NB-NB-Aus21 ([2]; 8 µM): 78.8±3.7%; IC50 ([2]; Example 3, Table 6, read-out: IC50 against NB-NB-Aus21): 1500 ± 100 nM; Percentage inhibition against NB-Aus21 (IBV) [2, 15]: 82.8 ± 1.7%; Percentage inhibition against hNEU2 [3, 16]: 3.3 ± 0.6%; percent inhibition against hNEU2 ([3]; Table 5): 3.3 ± 0.6%; IC50 ([4]; Example 3, Table 6, read-out: IC50 against N1-Vic19): 6200 ± 400 nM; percentage inhibition against N2-Dar21 [5]: 22.1%; percentage inhibition against N2-Kan17 [6]: 18.3%; IC50 ([7]; Example 3, Table 6, read-out: IC50 against NB-Phu13): 1400 ± 100 nM; percentage inhibition against NB-Phu13 [7]: 75.6±1.6%; percent inhibition against PmST1 WT [8]: 15.4 ± 5.0%; percent inhibition against SpNanA (SpNanA (sialidase)): 3.0 ± 1.3%
CC(=O)N[C@H]1[C@H]([C@H](O)[C@H](O)CO)OC(O)(C(=O)O)C[C@@H]1O (stereo partly drawn) [Neu5Ac (1), N-Acetylneuraminic acid, reference compound] | 5.2 ± 5.3 | – | 20.2 ± 2.6 | – | 1.7 ± 0.5 | – | – | – | – | – | – | – | –
CC(=O)N[C@@H]1C(O)C[C@](OC2C(O)[C@H](Oc3ccc([N+](=O)[O-])cc3)OC(CO)[C@@H]2O)(C(=O)O)OC1[C@H](O)[C@H](O)CO (stereo partly drawn) [Neu5Acα2-3GalβpNP, reference compound] | 2.3 ± 1.2 | 1.8 | 25.6 ± 2.3 | 0.5 | 0 | 0 | 3.3 | 0.9 | 0.1 | 0.7 | 12.4 ± 2.2 | 17.1 ± 6.1 | –
CC(=O)N[C@@H]1C(O)C[C@](OCC2O[C@@H](Oc3ccc([N+](=O)[O-])cc3)C(O)C(O)[C@H]2O)(C(=O)O)OC1[C@H](O)[C@H](O)CO (stereo partly drawn) [Neu5Acα2-6GalβpNP, reference compound] | 0 | 3.5 | 25.8 ± 2.1 | 0.2 | 0 | 0 | 1.4 | 0.8 | 0.4 | 0.8 | 14.6 ± 6.4 | 5.8 ± 6.8 | –
